# Results published in publication PMC9083030 (RSC Advances, 2018).
# Tested on: QGY-7701 cell line
# Experiment: CCK-8 cell proliferation assay, QGY-7701
# Assay type: cell-based, human
# Details: read-out: IC50 QGY-7701; CCK8, 72 h of treatment
smiles,measurement,value
N.N.[Cl][Pt][Cl] [Cisplatin],IC50,8.75 ± 0.26 µM
